Laboratory results from EP4722201A1, “3-PHENYLISOXAZOLINE-5-CARBOXAMIDE COMPOUND, AND PREPARATION METHOD THEREFOR, HERBICIDAL COMPOSITION THEREOF AND USE THEREOF” (Jiangsu Flag Chemical Industry Co., Ltd, priority 2023, dated 2024).

Columns and labels:
Assay in all cases: Indoor herbicide activity determination, Seed Treatment; pre-emergence (soil spray)
Format in all cases: in vivo
Aegilops tauschii = details: 120 g a.i./ha, read-out: Herbicidal activities (inhibition rate) Aegilops tauschii
Excerpt: (§1) The testing method for herbicide activity of the compound of the present invention was as follows:
(§2) Seed Treatment; pre-emergence: quantitative seeds of gramineous weeds (Echinochloa crusgalli, Eleusine indica, Digitaria sanguinalis, Alopecurus japonicus, Beckmannia syzigachne, Leptochloa chinensis, Polypogon fugax, Alopecurus aequalis, Lolium multiflorum, Poa annua, Aegilops tauschii, Avena fatua, Alopecurus myosuroides, Alopecurus japonicus and Alopecurus aequalis), broad-leaved weeds (Eclipta prostrata, Amaranthus retroflexus, Rorippa indica, Malachium aquaticum, Veronica polita, Conyza canadensis, Sesbania cannabina, Sagittariatrifolia and Schoenoplectiella juncoides), and Cyperus iria were sown in plastic pots having a diameter of 7 cm and holes at the bottom and filled with nutrient soil (sandy soil, pH 6.1, organic matter 1%) respectively, the seeds were covered with an appropriate amount of soil after being sown, then the soil was wetted with water from the bottom, the seeds were cultured in a constant-temperature illuminated culture room for 24 h, and the soil was sprayed by using a 3WP-2000 traveling spray tower produced by the Nanjing Institute of Agricultural Mechanization of the Ministry of Agriculture, where a rotational speed of a main shaft was 96 mm/r, a spray height was 300 mm, an effective spraying range of a nozzle was 350 mm, a spray area was 0.35 m^2, and a flow rate at the nozzle was 390 mL/min.
(§3) Post-emergence: an appropriate quantity of seeds of gramineous weeds (Echinochloa crusgalli, Eleusine indica, Digitaria sanguinalis, Alopecurus japonicus, Beckmannia syzigachne, Leptochloa chinensis, Polypogon fugax, Alopecurus aequalis, Lolium multiflorum, Poa annua, Aegilops tauschii, Avena fatua, Alopecurus myosuroides, Alopecurus japonicus and Alopecurus aequalis), broad-leaved weeds (Eclipta prostrata, Amaranthus retroflexus, Rorippa indica, Malachium aquaticum, Veronica polita, Conyza canadensis, Sesbania cannabina, Sagittariatrifolia and Schoenoplectiella juncoides), and Cyperus iria were sown in plastic pots having a diameter of 7 cm and holes at the bottom and filled with nutrient soil (sandy soil, pH 6.1, organic matter 1%) respectively, the seeds were covered with an appropriate amount of soil after being sown, then the soil was wetted with water from the bottom, the seeds were cultured in a constant-temperature illuminated culture room until a 2-4 leaf stage, and stems and leaves underwent spray treatment. After the treatment, the test materials were placed in a laboratory and cultured in the constant-temperature illuminated culture room after the liquid was naturally dry in the shade, and results were determined 21 days later. Inhibition rate of fresh weight % = (1−(fresh weight of treated plants)/(fresh weight of control plants)) × 100% [formula]

Alopecurus japonicus = system: Alopecurus japonicus
Excerpt: as §1, §2, §3

Alopecurus myosuroides = system: Alopecurus myosuroides
Excerpt: as §1, §2, §3

Cyperus iria = details: read-out: Herbicidal activities (inhibition rate) Cyperus iria; for inhibition at 120 g/ha: 120 g a.i./ha; for inhibition at 60 g/ha: 60 g a.i./ha
Excerpt: as §1, §2, §3

Eleusine indica = system: Eleusine indica
Excerpt: as §1, §2, §3

Leptochloa chinensis = system: Leptochloa chinensis
Excerpt: as §1, §2, §3

Lolium multiflorum = system: Lolium multiflorum
Excerpt: as §1, §2, §3

Eclipta prostrata = details: 60 g a.i./ha, read-out: Herbicidal activities (inhibition rate) Eclipta prostrata
Excerpt: as §1, §2, §3

C=CC1(C(=O)N[C@H]2C[C@@H](C(=O)OCCSC)C2)CC(c2cc(F)cc(F)c2)=NO1 (mixture of isomers) [I-8]
inhibition at 120 g/ha (Aegilops tauschii): 80 to 100%
Herbicidal activities, Alopecurus japonicus (inhibition rate class) (Alopecurus japonicus; Dosage 240 g a.i./ha): A (A indicates that the inhibition rate was greater than or equal to 80% to 100%)
Herbicidal activities, Alopecurus myosuroides (inhibition rate class) (Alopecurus myosuroides; Dosage 240 g a.i./ha): A (A indicates that the inhibition rate was greater than or equal to 80% to 100%)
inhibition at 120 g/ha (Cyperus iria): 80 to 100%
Herbicidal activities, Eleusine indica (inhibition rate class) (Eleusine indica; Dosage 240 g a.i./ha): A (A indicates that the inhibition rate was greater than or equal to 80% to 100%)
Herbicidal activities, Leptochloa chinensis (inhibition rate class) (Leptochloa chinensis; Dosage 240 g a.i./ha): A (A indicates that the inhibition rate was greater than or equal to 80% to 100%)
Herbicidal activities, Lolium multiflorum (inhibition rate class) (Lolium multiflorum; Dosage 240 g a.i./ha): A (A indicates that the inhibition rate was greater than or equal to 80% to 100%)

O=C(N[C@H]1C[C@@H](C(=O)OC2CCCC2)C1)[C@@]1(C(F)(F)F)CC(c2cc(F)cc(OC(F)(F)F)c2)=NO1 [I-253]
Herbicidal activities, Alopecurus japonicus (inhibition rate class) (Alopecurus japonicus; Dosage 120 g a.i./ha): A (A indicates that the inhibition rate was greater than or equal to 80% to 100%)
Herbicidal activities, Alopecurus myosuroides (inhibition rate class) (Alopecurus myosuroides; Dosage 120 g a.i./ha): A (A indicates that the inhibition rate was greater than or equal to 80% to 100%)
inhibition at 60 g/ha (Cyperus iria): 80 to 100%
inhibition at 60 g/ha (Eclipta prostrata): 60 to 80%
Herbicidal activities, Eleusine indica (inhibition rate class) (Eleusine indica; Dosage 120 g a.i./ha): A (A indicates that the inhibition rate was greater than or equal to 80% to 100%)
Herbicidal activities, Leptochloa chinensis (inhibition rate class) (Leptochloa chinensis; Dosage 120 g a.i./ha): A (A indicates that the inhibition rate was greater than or equal to 80% to 100%)

O=C(N[C@H]1C[C@@H](C(=O)OCC(F)(F)C(F)(F)F)C1)[C@@]1(C(F)(F)F)CC(c2cc(F)cc(OC(F)(F)F)c2)=NO1 [I-254]
Herbicidal activities, Alopecurus japonicus (inhibition rate class) (Alopecurus japonicus; Dosage 120 g a.i./ha): A (A indicates that the inhibition rate was greater than or equal to 80% to 100%)
Herbicidal activities, Alopecurus myosuroides (inhibition rate class) (Alopecurus myosuroides; Dosage 120 g a.i./ha): A (A indicates that the inhibition rate was greater than or equal to 80% to 100%)
inhibition at 60 g/ha (Cyperus iria): 80 to 100%
inhibition at 60 g/ha (Eclipta prostrata): 80 to 100%
Herbicidal activities, Eleusine indica (inhibition rate class) (Eleusine indica; Dosage 120 g a.i./ha): A (A indicates that the inhibition rate was greater than or equal to 80% to 100%)
Herbicidal activities, Leptochloa chinensis (inhibition rate class) (Leptochloa chinensis; Dosage 120 g a.i./ha): A (A indicates that the inhibition rate was greater than or equal to 80% to 100%)

C=C[C@]1(C(=O)N[C@H]2C=C[C@@H](C(=O)OCCCCCCC)C2)CC(c2cc(F)cc(C(F)(F)F)c2)=NO1 [I-431]
Herbicidal activities, Alopecurus japonicus (inhibition rate class) (Alopecurus japonicus; Dosage 120 g a.i./ha): A (A indicates that the inhibition rate was greater than or equal to 80% to 100%)
Herbicidal activities, Alopecurus myosuroides (inhibition rate class) (Alopecurus myosuroides; Dosage 120 g a.i./ha): A (A indicates that the inhibition rate was greater than or equal to 80% to 100%)
inhibition at 60 g/ha (Cyperus iria): 80 to 100%
inhibition at 60 g/ha (Eclipta prostrata): 80 to 100%
Herbicidal activities, Eleusine indica (inhibition rate class) (Eleusine indica; Dosage 120 g a.i./ha): A (A indicates that the inhibition rate was greater than or equal to 80% to 100%)
Herbicidal activities, Leptochloa chinensis (inhibition rate class) (Leptochloa chinensis; Dosage 120 g a.i./ha): A (A indicates that the inhibition rate was greater than or equal to 80% to 100%)
Herbicidal activities, Lolium multiflorum (inhibition rate class) (Lolium multiflorum; Dosage 120 g a.i./ha): A (A indicates that the inhibition rate was greater than or equal to 80% to 100%)

C=C[C@]1(C(=O)N[C@H]2C=C[C@@H](C(=O)OCc3ccccc3)C2)CC(c2cc(F)cc(C(F)(F)F)c2)=NO1 [I-439]
inhibition at 60 g/ha (Cyperus iria): 80 to 100%
inhibition at 60 g/ha (Eclipta prostrata): 80 to 100%
Herbicidal activities, Eleusine indica (inhibition rate class) (Eleusine indica; Dosage 120 g a.i./ha): A (A indicates that the inhibition rate was greater than or equal to 80% to 100%)
Herbicidal activities, Leptochloa chinensis (inhibition rate class) (Leptochloa chinensis; Dosage 120 g a.i./ha): A (A indicates that the inhibition rate was greater than or equal to 80% to 100%)

C=CC(C)OC(=O)[C@@H]1C=C[C@H](NC(=O)[C@@]2(C=C)CC(c3cc(F)cc(C(F)(F)F)c3)=NO2)C1 (stereo partly shown) [I-444]
inhibition at 60 g/ha (Cyperus iria): 80 to 100%
inhibition at 60 g/ha (Eclipta prostrata): 80 to 100%
Herbicidal activities, Eleusine indica (inhibition rate class) (Eleusine indica; Dosage 120 g a.i./ha): A (A indicates that the inhibition rate was greater than or equal to 80% to 100%)
Herbicidal activities, Leptochloa chinensis (inhibition rate class) (Leptochloa chinensis; Dosage 120 g a.i./ha): A (A indicates that the inhibition rate was greater than or equal to 80% to 100%)

C=C[C@]1(C(=O)N[C@H]2C=C[C@@H](C(=O)OC)C2)CC(c2cc(Cl)cc(OC(F)(F)F)c2)=NO1 [I-471]
inhibition at 60 g/ha (Cyperus iria): 80 to 100%
inhibition at 60 g/ha (Eclipta prostrata): 80 to 100%
Herbicidal activity (inhibition rate class), Eleusine indica (Eleusine indica; Dosage 120 g a.i./ha): A (A indicates that the inhibition rate was greater than or equal to 80% to 100%)
Herbicidal activity (inhibition rate class), Leptochloa chinensis (Leptochloa chinensis; Dosage 120 g a.i./ha): A (A indicates that the inhibition rate was greater than or equal to 80% to 100%)

C=C[C@]1(C(=O)N[C@H]2C=C[C@@H](C(=O)OC3CCC3)C2)CC(c2cc(Cl)cc(C(F)(F)F)c2)=NO1 [I-478]
Herbicidal activity (inhibition rate class), Alopecurus japonicus (Alopecurus japonicus; Dosage 120 g a.i./ha): A (A indicates that the inhibition rate was greater than or equal to 80% to 100%)
Herbicidal activity (inhibition rate class), Alopecurus myosuroides (Alopecurus myosuroides; Dosage 120 g a.i./ha): A (A indicates that the inhibition rate was greater than or equal to 80% to 100%)
inhibition at 60 g/ha (Cyperus iria): 80 to 100%
inhibition at 60 g/ha (Eclipta prostrata): 80 to 100%
Herbicidal activity (inhibition rate class), Eleusine indica (Eleusine indica; Dosage 120 g a.i./ha): A (A indicates that the inhibition rate was greater than or equal to 80% to 100%)
Herbicidal activity (inhibition rate class), Leptochloa chinensis (Leptochloa chinensis; Dosage 120 g a.i./ha): A (A indicates that the inhibition rate was greater than or equal to 80% to 100%)
Herbicidal activity (inhibition rate class), Lolium multiflorum (Lolium multiflorum; Dosage 120 g a.i./ha): B (B indicates that the inhibition rate was greater than or equal to 60% to less than 80%)

C=C[C@]1(C(=O)N[C@H]2C=C[C@@H](C(=O)OC(C)C)C2)CC(c2cc(Cl)cc(C(F)(F)F)c2)=NO1 [I-483]
inhibition at 60 g/ha (Cyperus iria): 80 to 100%
inhibition at 60 g/ha (Eclipta prostrata): 80 to 100%
Herbicidal activity (inhibition rate class), Eleusine indica (Eleusine indica; Dosage 120 g a.i./ha): A (A indicates that the inhibition rate was greater than or equal to 80% to 100%)
Herbicidal activity (inhibition rate class), Leptochloa chinensis (Leptochloa chinensis; Dosage 120 g a.i./ha): A (A indicates that the inhibition rate was greater than or equal to 80% to 100%)

CSCCOC(=O)[C@@H]1C=C[C@H](NC(=O)C2(C)CC(c3cc(F)cc(C(F)(F)F)c3)=NO2)C1 (stereo partly shown) [I-497]
inhibition at 120 g/ha (Aegilops tauschii): 80 to 100%
Herbicidal activity (inhibition rate class), Alopecurus japonicus (Alopecurus japonicus; Dosage 240 g a.i./ha): A (A indicates that the inhibition rate was greater than or equal to 80% to 100%)
Herbicidal activity (inhibition rate class), Alopecurus myosuroides (Alopecurus myosuroides; Dosage 240 g a.i./ha): A (A indicates that the inhibition rate was greater than or equal to 80% to 100%)
inhibition at 120 g/ha (Cyperus iria): 80 to 100%
Herbicidal activity (inhibition rate class), Eleusine indica (Eleusine indica; Dosage 240 g a.i./ha): A (A indicates that the inhibition rate was greater than or equal to 80% to 100%)
Herbicidal activity (inhibition rate class), Leptochloa chinensis (Leptochloa chinensis; Dosage 240 g a.i./ha): A (A indicates that the inhibition rate was greater than or equal to 80% to 100%)
Herbicidal activity (inhibition rate class), Lolium multiflorum (Lolium multiflorum; Dosage 240 g a.i./ha): A (A indicates that the inhibition rate was greater than or equal to 80% to 100%)

C#CC(CC)OC(=O)[C@@H]1C=C[C@H](NC(=O)[C@@]2(C)CC(c3cc(Cl)cc(C(F)(F)F)c3)=NO2)C1 (stereo partly shown) [I-514]
Herbicidal activity (inhibition rate class), Alopecurus japonicus (Alopecurus japonicus; Dosage 120 g a.i./ha): A (A indicates that the inhibition rate was greater than or equal to 80% to 100%)
Herbicidal activity (inhibition rate class), Alopecurus myosuroides (Alopecurus myosuroides; Dosage 120 g a.i./ha): A (A indicates that the inhibition rate was greater than or equal to 80% to 100%)
inhibition at 60 g/ha (Cyperus iria): 80 to 100%
inhibition at 60 g/ha (Eclipta prostrata): 80 to 100%
Herbicidal activity (inhibition rate class), Eleusine indica (Eleusine indica; Dosage 120 g a.i./ha): A (A indicates that the inhibition rate was greater than or equal to 80% to 100%)
Herbicidal activity (inhibition rate class), Leptochloa chinensis (Leptochloa chinensis; Dosage 120 g a.i./ha): A (A indicates that the inhibition rate was greater than or equal to 80% to 100%)
Herbicidal activity (inhibition rate class), Lolium multiflorum (Lolium multiflorum; Dosage 120 g a.i./ha): A (A indicates that the inhibition rate was greater than or equal to 80% to 100%)

COC(=O)[C@@H]1C=C[C@H](NC(=O)[C@@]2(C(F)F)CC(c3cc(F)cc(C(F)(F)F)c3)=NO2)C1 [I-532]
inhibition at 60 g/ha (Cyperus iria): 80 to 100%
inhibition at 60 g/ha (Eclipta prostrata): 80 to 100%
Herbicidal activity (inhibition rate class), Eleusine indica (Eleusine indica; Dosage 120 g a.i./ha): A (A indicates that the inhibition rate was greater than or equal to 80% to 100%)
Herbicidal activity (inhibition rate class), Leptochloa chinensis (Leptochloa chinensis; Dosage 120 g a.i./ha): A (A indicates that the inhibition rate was greater than or equal to 80% to 100%)
